32 compounds from patent publication US7589220B2, “Inhibitors of the anandamide transporter” (priority 1998, dated 2009) can be followed below.

Like-named read-outs stand apart in the source and are kept apart here.

For test [1], the system named is anandamide transporter. As to the kind of experiment: substrate translocation of radioactively labeled analogs (FIGS. 1 and 2). In kind it is cell-based. Also on record: dose or concentration left out as unconfirmed. The settings on record: radioactively labeled compounds.
Test [2] deals with anandamide transporter. As to the kind of experiment: [3H]anandamide competition assay using a high throughput method. In kind it is cell-based, human.
The test system of test [3] is PGE2 carrier. The experiment in a line: [3H]PGE2 accumulation in neurons or astrocytes. In kind it is cell-based. The text has this:
The bromcresol green, which blocks PGE2 transport, raised the question of whether anandamide accumulation occurred by means of a PGE2 carrier. That this is not the case was shown by the lack of [^3H]PGE2 accumulation in neurons or astrocytes and by the inability of PGE2 to interfere with [^3H]anandamide accumulation.

The subject of test [4] is anandamide transporter. As to the kind of experiment: [3H]anandamide accumulation in cortical astrocytes in culture. In kind it is cell-based, rat. The conditions noted are these: for effect on [3H]anandamide accumulation: cortical astrocytes; for prevention of the temperature-sensitive component of [3H]anandamide accumulation: cortical astrocytes in culture.
In test [5] the test system is anandamide transporter. The experiment in a line: [3H]anandamide accumulation in neurons. In kind it is cell-based, rat.
The target in test [6] is T1, rat cerebral membranes (Rattus norvegicus, UniProt P20272).
T1 construct: from tissue; host or cells: rat cerebral membranes
As to the kind of experiment: binding of [3H]WIN-55212-2 to rat cerebral membranes.

Test [7] concerns astrocytes. The experiment in a line: uptake of [3H]arachidonate in astrocytes. In kind it is cell-based.
The test system of test [8] is astrocytes. As to the kind of experiment: uptake of [3H]ethanolamine in astrocytes. In kind it is cell-based.
Setting [9] is: Table I, affinity for ligand recognition by the anandamide transporter.
Setting [10] is: read-out: IC50 (AT inhib.) μM), Table II, anandamide transporter inhibition.
The mark [11] stands for this setting: Table II, anandamide transporter inhibition, read-out: IC50 (AT inhib.) μM).
[12] abbreviates: astrocytes, single high-affinity component.

T1 sequence (P20272 whole entry): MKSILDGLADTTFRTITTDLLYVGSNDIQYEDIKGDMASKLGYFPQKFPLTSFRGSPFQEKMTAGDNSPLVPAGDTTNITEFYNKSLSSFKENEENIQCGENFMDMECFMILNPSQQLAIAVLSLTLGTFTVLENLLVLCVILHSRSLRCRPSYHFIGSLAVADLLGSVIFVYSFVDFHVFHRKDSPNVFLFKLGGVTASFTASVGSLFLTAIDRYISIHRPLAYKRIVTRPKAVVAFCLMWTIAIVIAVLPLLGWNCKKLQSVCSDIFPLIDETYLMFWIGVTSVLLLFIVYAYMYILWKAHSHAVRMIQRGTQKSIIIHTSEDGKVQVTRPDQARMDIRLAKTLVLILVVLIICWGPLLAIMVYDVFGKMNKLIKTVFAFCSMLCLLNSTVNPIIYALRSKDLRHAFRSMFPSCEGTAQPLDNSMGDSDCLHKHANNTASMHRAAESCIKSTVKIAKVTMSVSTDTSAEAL

With `CCCCC/C=C\C/C=C\C/C=C\C/C=C\CCCC(=O)Nc1ccc(O)cc1` [AM404, N-(4-hydroxyphenyl)arachidonamide, reference compound], the “transport (translocation) compared with [3H]anandamide” value in test [1] was “transported as rapidly and effectively as”.

In the case of `CCCCC/C=C\C/C=C\C/C=C\C/C=C\CCCNC(=O)c1ccc(O)cc1` [AM1172], the IC50 in test [2] (setting [9]) stood at 2 µM. The “transport (translocation) compared with [3H]anandamide” value in test [1] was “transported as rapidly and effectively as”.

For the compound `CCCCC/C=C\C/C=C\C/C=C\C/C=C\CCCCNC(=O)C(C)C` [AM1177], the IC50 in test [2] (setting [9]) is 5 µM. The “transport (translocation) compared with [3H]anandamide” value in test [1] was “transported as rapidly and effectively as”.

In the case of `CCCCC/C=C\C/C=C\C/C=C\C/C=C\CCCC(=O)OC1COC(c2ccccc2)OC1` (centres unmarked) [AM1191], the IC50 in test [2] (setting [9]) was 0.8 µM. For the same compound, the “transport (translocation) compared with [3H]anandamide” value in test [1] was “transported as rapidly and effectively as”.

Take `CCCCCC=CCC=CCC=CCC=CCCCCOC(=O)NC(C)CO` (centres unmarked) [Compound 1]: the concentration for half-maximal inhibition (IC50) in test [2] (setting [10]) is 7.1 µM.

Take `CCCCCC=CCC=CCC=CCC=CCCCCOC(=O)NC(C)CO` (centres unmarked) [Compound 2]: the IC50 in test [2] (setting [10]) was 6.4 µM.

For the compound `CCCCCC=CCC=CCC=CCC=CCCCCOC(=O)NCC(C)O` (centres unmarked) [Compound 3], in test [2] (setting [10]), the IC50 was 1.5 µM.

For the compound `CCCCCC=CCC=CCC=CCC=CCCCCOC(=O)NCC(C)O` (centres unmarked) [Compound 4], the IC50 in test [2] (setting [10]) was 0.4 µM.

Take `CCCCCC=CCC=CCC=CCC=CCCCCOC(=O)NC(C)C` [Compound 5]: the IC50 in test [2] (setting [10]) was 21.9 µM.

Consider `CCCCCC=CCC=CCC=CCC=CCCCCOC(=O)NC1CC1` [Compound 6], for which the IC50 in test [2] (setting [10]) came out at 15.5 µM.

In the case of `CCCCCC=CCC=CCC=CCC=CCCCCOC(=O)NC1CCC1` [Compound 7], the IC50 in test [2] (setting [10]) stood at 15.5 µM.

Regarding `CCCCCC=CCC=CCC=CCC=CCCCCOC(=O)NC1CCCCC1` [Compound 8], the IC50 in test [2] (setting [10]) came to 33 µM.

On to `CCCCCC=CCC=CCC=CCC=CCCCCOC(=O)Nc1ccc(O)cc1` [Compound 9], for which the IC50 in test [2] (setting [10]) was found to be 6.6 µM.

For the compound `CCCCCC=CCC=CCC=CCC=CCCCCOC(=O)NC1=NCCS1` [Compound 10], the IC50 in test [2] (setting [11]) stood at 8.6 µM.

On to `CCCCCC=CCC=CCC=CCC=CCCCCOC(=O)Nc1cccnc1` [Compound 11], for which the IC50 in test [2] (setting [10]) was found to be 16.1 µM.

`CCCCCC=CCC=CCC=CCC=CCCCCNC(=O)NCC(C)O` (centres unmarked) [Compound 12]: in test [2] (setting [10]), the IC50 worked out at 1.78 µM.

On to `CCCCCC=CCC=CCC=CCC=CCCCCNC(=O)OCC(C)O` (centres unmarked) [Compound 16], for which, in test [2] (setting [10]), the IC50 came to 3.29 µM.

Turning to `CCCCC/C=C\C/C=C\C/C=C\C/C=C\CCCC(=O)Nc1nccs1` [Compound 17], the IC50 in test [2] (setting [11]) came out at 1.7 µM.

`CCCCC/C=C\C/C=C\C/C=C\C/C=C\CCCC(=O)NC1=NCCS1` [Compound 18]: in test [2] (setting [11]), the IC50 was 2.8 µM.

`CCCCC/C=C\C/C=C\C/C=C\C/C=C\CCCC(=O)Nc1nncs1` [Compound 19]: in test [2] (setting [11]), the IC50 came to 1.5 µM.

In the case of `CCCCC/C=C\C/C=C\C/C=C\C/C=C\CCCC(=O)Nc1nc2ccccc2s1` [Compound 20], in test [2] (setting [11]), the IC50 came out at 44.2 µM.

As for `CCCCC/C=C\C/C=C\C/C=C\C/C=C\CCCC(=O)Nc1nc(Br)cs1` [Compound 21], the IC50 in test [2] (setting [11]) came to 92.3 µM.

Regarding `CCCCC/C=C\C/C=C\C/C=C\C/C=C\CCCC(=O)Nc1ncc([N+](=O)[O-])s1` [Compound 22], in test [2] (setting [11]), the IC50 came to 14.1 µM.

Consider `CCCCC/C=C\C/C=C\C/C=C\C/C=C\CCCC(=O)Nc1nc(C)cs1` [Compound 23], for which the IC50 in test [2] (setting [11]) turned out to be 11.2 µM.

With `CCCCC/C=C\C/C=C\C/C=C\C/C=C\CCCC(=O)Nc1nc(C)c(C)s1` [Compound 24], the IC50 in test [2] (setting [11]) turned out to be 26 µM.

`CCCCC/C=C\C/C=C\C/C=C\C/C=C\CCCC(=O)Nc1nc(C(C)(C)C)cs1` [Compound 25]: in test [2] (setting [11]), the IC50 came to 24.1 µM.

Turning to `CCCCC[C@H](O)/C=C/[C@H]1[C@H](O)CC(=O)[C@@H]1C/C=C\CCCC(=O)O` [PGE2, prostaglandin E2], the “accumulation of [3H]PGE2” value in test [3] is recorded as “lack”. Moreover, the “interference with [3H]anandamide accumulation” value in test [4] was “inability”.

For the compound `Cc1c(C(=O)NN2CCCCC2)nn(-c2ccc(Cl)cc2Cl)c1-c1ccc(Cl)cc1.Cl` [SR-141716-A], the “displacement of the higher affinity component of [3H]anandamide accumulation” value in test [5] (neurons, 100 nM) is reported as “displaced”. Further, in test [4] (10 μM), the “effect on [3H]anandamide accumulation” value is “no effect”.

With `Cc1c(C(=O)c2cccc3ccccc23)c2cccc3c2n1[C@H](CN1CCOCC1)CO3` [WIN-55212-2], the “effect on [3H]anandamide accumulation” value in test [4] (1 μM) was “no effect”.

As for `CCCCC/C=C\C/C=C\C/C=C\C/C=C\CCCC(=O)NCCO` [anandamide, Arachidonyl ethanolamide], the “time to reach 50% of maximum accumulation” value in test [5] (neurons and astrocytes) is on record as “about four”. Moreover, the Vmax in test [5] (neurons, higher affinity component) was 5.9 pmol/min per milligram of protein; in test [4] (setting [12]), 171 pmol/min per milligram of protein. In addition, the Km in test [5] (neurons, higher affinity component, read-out: Km) was 0.032 µM; in test [5] (neurons, lower affinity component, read-out: Michaelis constant, Km), 1.2 µM; in test [4] (setting [12]), 0.32 µM. Besides, in test [5] (neurons, lower affinity component), the “maximum accumulation rate, Vmax” value is given as 90.9 pmol/min per milligram of protein. Also, the “prevention of the temperature-sensitive component of [3H]anandamide accumulation” value in test [4] is “prevented”.

On to `Cc1c(C2(c3cc(Br)c(O)c(Br)c3C)OS(=O)(=O)c3ccccc32)cc(Br)c(O)c1Br` [bromcresol green], for which the “effect on the binding of [3H]WIN-55212-2” value in test [6] was “no significant effect”. In addition, in test [7], the “effect on uptake of [3H]arachidonate” value is “no significant effect”. For the same compound, the “mode of inhibition of [3H]anandamide accumulation” value in test [5] (neurons and astrocytes) is given as “noncompetitively”. For the same compound, in test [8], the “effect on uptake of [3H]ethanolamine” value is recorded as “no significant effect”.

On to `CCCCCCCCCCCCCCCC(=O)NCCO` [palmitoyl ethanolamide], for which the “prevention of the temperature-sensitive component of [3H]anandamide accumulation” value in test [4] is listed as “not”.

In general, IC50 refers to the concentration at which inhibition is half-maximal. One may read the Km as the substrate concentration at which the rate is half of its maximum.
